Broadly, the IC50 is the concentration that gives 50% inhibition.

HCV NS3-4A serine protease (full-length NS3-4A protein), sequence (P26664 1027-1657): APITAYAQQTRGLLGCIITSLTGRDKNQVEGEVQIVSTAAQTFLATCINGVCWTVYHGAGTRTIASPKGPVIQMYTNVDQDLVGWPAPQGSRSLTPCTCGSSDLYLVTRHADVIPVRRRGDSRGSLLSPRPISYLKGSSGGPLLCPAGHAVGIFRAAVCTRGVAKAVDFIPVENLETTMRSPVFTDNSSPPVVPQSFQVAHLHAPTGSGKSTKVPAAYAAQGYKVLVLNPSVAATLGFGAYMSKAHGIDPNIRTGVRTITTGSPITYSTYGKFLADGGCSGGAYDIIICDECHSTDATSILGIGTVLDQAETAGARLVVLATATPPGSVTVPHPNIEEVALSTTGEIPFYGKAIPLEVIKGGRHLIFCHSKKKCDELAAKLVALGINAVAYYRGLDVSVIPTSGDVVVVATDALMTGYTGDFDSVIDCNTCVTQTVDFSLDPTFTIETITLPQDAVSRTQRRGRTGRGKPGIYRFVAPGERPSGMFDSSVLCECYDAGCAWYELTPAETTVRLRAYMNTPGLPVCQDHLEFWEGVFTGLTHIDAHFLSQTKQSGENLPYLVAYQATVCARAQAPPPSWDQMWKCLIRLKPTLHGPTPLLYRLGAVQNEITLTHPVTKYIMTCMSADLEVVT
HCV NS3-4A serine protease (full-length NS3-4A protein), sequence (P26664 1658-1711 partner): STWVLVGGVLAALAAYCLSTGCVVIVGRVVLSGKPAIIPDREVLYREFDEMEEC

For the assay, the target named is HCV NS3-4A serine protease (full-length NS3-4A protein) (Hepatitis C virus genotype 1a (isolate 1) (HCV), UniProt P26664). Briefly: HCV NS3-4A protease assay. The settings on record: strain HCV-1, fluorogenic peptide substrate, read-out: Protease assay Ex. 12 IC50. The format is biochemical, HCV genotype 1a. The procedure:
The inhibitory activity of certain compounds of Table A against HCV NS3-4A serine protease is determined in a homogenous assay using the full-length NS3-4A protein (genotype 1a, strain HCV-1) and a commercially available internally-quenched fluorogenic peptide substrate as described by Taliani, M., et al. 1996 Anal. Biochem. 240:60-67, which is incorporated by reference in its entirety.
With `C=C[C@@H]1C[C@]1(NC(=O)[C@@H]1C[C@@]2(CN1C(=O)[C@@H](NC(=O)[C@@H](NC(=O)[C@@H]1CCCN1CC)C1(C)CCCCC1)C1(C)CCCCC1)C(C)(C)C21CCC1)C(=O)NS(=O)(=O)N(CC)CC` [Compound 159, (5R,8S)-N-[(1R,2S)-1-{[(diethylamino)sulfonyl]carbamoyl}-2-vinylcyclopropyl]-7-[(2S)-2-{[(2S)-2-({[(2S)-1-ethylpyrrolidin-2-yl]carbonyl}amino)-2-(1-methylcyclohexyl)acetyl]amino}-2-(1-methylcyclohexyl)acetyl]-10,10-dimethyl-7-azadispiro[3.0.4.1]decane-8-carboxamide], the concentration for half-maximal inhibition (IC50) is 11 nM.
`C=C[C@@H]1C[C@]1(NC(=O)[C@@H]1C[C@@]2(CN1C(=O)[C@@H](NC(=O)OC(C)(C)C)C(C)(C)C)C(C)(C)C21CCC1)C(=O)NS(=O)(=O)N1CCCC1` [Compound 1, tert-butyl [(1S)-1-{[(5R,8S)-10,10-dimethyl-8-({(1R,2S)-1-[(pyrrolidin-1-ylsulfonyl)carbamoyl]-2-vinylcyclopropyl}carbamoyl)-7-azadispiro[3.0.4.1]dec-7-yl]carbonyl}-2,2-dimethylpropyl]carbamate]: the IC50 amounted to 400 nM.
As for `CC[C@@H]1C[C@]1(NC(=O)[C@@H]1C[C@@]2(CN1C(=O)[C@@H](NC(=O)[C@@H](NC(=O)[C@@H]1CCCCN1C(C)C)C(C)(C)C)C(C)(C)C)C(C)(C)C21CCC1)C(=O)NS(=O)(=O)N1CCCC1` [Compound 30, (5R,8S)-N-{(1R,2R)-2-ethyl-1-[(pyrrolidin-1-ylsulfonyl)carbamoyl]cyclopropyl}-7-[(2S)-2-{[(2S)-2-({[(2S)-1-isopropylpiperidin-2-yl]carbonyl}amino)-3,3-dimethylbutanoyl]amino}-3,3-dimethylbutanoyl]-10,10-dimethyl-7-azadispiro[3.0.4.1]decane-8-carboxamide], the IC50 turned out to be 62 nM.
For `C=C[C@@H]1C[C@]1(NC(=O)[C@@H]1C[C@@]2(CN1C(=O)[C@@H](NC(=O)[C@@H](NC(=O)[C@H]1CCCCN1C(C)C)C1CCCCC1)C(C)(C)C)C(C)(C)C21CCC1)C(=O)NS(=O)(=O)N(CC)CC` [Compound 65, (5R,8S)-7-[(2S)-2-{[(2S)-2-cyclohexyl-2-({[(2R)-1-isopropylpiperidin-2-yl]carbonyl}amino)acetyl]amino}-3,3-dimethylbutanoyl]-N-[(1R,2S)-1-{[(diethylamino)sulfonyl]carbamoyl}-2-vinylcyclopropyl]-10,10-dimethyl-7-azadispiro[3.0.4.1]decane-8-carboxamide], the IC50 came to 4.5 nM.
As to `[2H]C([2H])([2H])C([2H])([2H])N(C([2H])([2H])C([2H])([2H])[2H])S(=O)(=O)NC(=O)[C@@]1(NC(=O)[C@@H]2C[C@@]3(CN2C(=O)[C@@H](NC(=O)[C@@H](NC(=O)[C@@H]2CCCCN2C(C)C)C2CCCCC2)C(C)(C)C)C(C)(C)C32CCC2)C[C@H]1C=C` [Compound 149, (5R,8S)-7-[(2S)-2-{[(2S)-2-cyclohexyl-2-({[(2S)-1-isopropylpiperidin-2-yl]carbonyl}amino)acetyl]amino}-3,3-dimethylbutanoyl]-N-[(1R,2S)-1-{[(d10-diethylamino)sulfonyl]carbamoyl}-2-vinylcyclopropyl]-10,10-dimethyl-7-azadispiro[3.0.4.1]decane-8-carboxamide-d10], the IC50 came to 1.5 nM.
Turning to `C=C[C@@H]1C[C@]1(NC(=O)[C@@H]1C[C@@]2(CN1C(=O)[C@@H](NC(=O)[C@@H](NC(=O)[C@@H]1CCCCN1CC)C1CCCCC1)C(C)(C)C)C(C)(C)C21CCC1)C(=O)NS(=O)(=O)N1CCCC1` [Compound 37, (5R,8S)-7-[(2S)-2-{[(2S)-2-cyclohexyl-2-({[(2S)-1-ethylpiperidin-2-yl]carbonyl}amino)acetyl]amino}-3,3-dimethylbutanoyl]-10,10-dimethyl-N-{(1R,2S)-1-[(pyrrolidin-1-ylsulfonyl)carbamoyl]-2-vinylcyclopropyl}-7-azadispiro[3.0.4.1]decane-8-carboxamide], the IC50 was found to be 3.3 nM.

Source of the values: US8613914B2, “Peptidomimetic sulfamide compounds and antiviral uses thereof” (Novartis AG, priority 2009, dated 2013).
